Reference: US20100029702A1, “Method For Identification of Compound Having Anti-Anxiety Effect” (priority 2006, published 2010)

Tested on: CHO-K1 cell strain
Assay: Changes in intracellular Ca2+ concentration in CHO-K1 host cell not transfected (negative control)
Assay type: cell-based, Chinese hamster
Experimental: The specific method for measuring changes in the intracellular Ca^2+ concentration in the HA-ph01207#10-6 cell strain induced by CCK-8S (SEQ ID NO: 14) and the results are described below. The HA-ph01207#10-6 cell strain was seeded on a 96-well plate (a plate with a black wall and a transparent bottom) at a cell count of 2×10^4/100 μL medium/well and cultured at 37° C. in the presence of 5% CO2. As a medium, DMEM/F12 (Gibco) containing 10% fetal calf serum (Moregate) was used. On the following day, 50 μL of the medium was removed from each well, 50 μL of a loading buffer was added to each well, and the mixture was reacted at room temperature for 1.5 h, so that a fluorescent dye contained in the loading buffer should be taken up into the cell. The loading buffer was prepared by dissolving component A of the FLIPR Calcium 3 Assay Kit (Molecular Device) in a solution obtained by adding 0.1 mL of 500 mM probenecid (Sigma) to 9.9 mL of component B. After reaction, changes over time in the fluorescence intensity in each well after addition of CCK-8S (Peptide Institute, Inc.) were measured using the FLEX station (Molecular Device). Furthermore, similar measurement was performed for CCK-8NS (Peptide Institute, Inc.) and CCK-4 (Peptide Institute, Inc.). 0.52 mg of CCK-8S (SEQ ID NO: 14) was dissolved in 4.5 mL of 1% NaHCO3 (Wako) to prepare a solution having 0.1 mM concentration. 0.53 mg of CCK-8NS was dissolved in 0.50 mL of dimethyl sulfoxide (DMSO, Sigma), and then 4.50 mL of redistilled water H2O was added to prepare a solution having 0.1 mM concentration. 0.54 mg of CCK-4 was dissolved in 0.46 mL of DMSO, 4.09 mL of redistilled water was added to prepare a solution having 0.2 mM concentration. CCK-8S (SEQ ID NO: 14), CCK-8NS, and CCK-4 were diluted in phosphate-buffered physiological saline (PBS) to prepare 5 nM solutions, and 25 μL each was added (final concentration 1 nM) to perform measurement. As a positive control for including an increase in the intracellular Ca^2+ concentration, A23187 (Calbiochem) was used at a final concentration of 10 μM. As a negative control, the CHO-K1 cell strain used to prepare the HA-ph01207#10-6 cell strain as a host was used. Since the CHO-K1 cell strain was not transfected with the ph01207-expressing vector, the ph01207 gene product was not expressed.
Changes in the intracellular calcium (Ca^2+) concentration induced by CCK-8S were measured by a method similar to the method described in Example 5 using the 7tmHR stably-expressing strain and the hk01941 stably-expressing strain prepared in Example 7. As a control, a host cell not transfected with the 7tmHR-expressing vector or the hk01941-expressing vector was also used.
Cells were seeded in a 96-well plate (a plate with a black wall and a transparent bottom) at a cell count of 3×10^4/100 μL of medium/well and cultured overnight at 37° C. in a 5% CO2 incubator. On the following day, 50 μL of the medium was removed from each well, […] of a loading buffer was added to each well, and the mixture was reacted at room temperature for 1 h, so that a fluorescent dye contained in the loading buffer was taken up into the cell. The loading buffer was prepared by a method similar to the method described in Example 5. After reaction, changes over time in the fluorescence intensity in each well after addition of CCK-8S were measured using the FLEX station (Molecular Device). CCK-8S was used at a final concentration of 10 pM to 1 μM. Furthermore, as a positive control of the assay, A23187 was used at a final concentration of 20 μM.
Cells were seeded in a 96-well plate (a plate with a black wall and a transparent bottom) at a cell count of 3×10^4/100 μL of medium/well and cultured overnight at 37° C. in a 5% CO2 incubator. […]

Molecule | Change in intracellular Ca2+ concentration (fluorescence intensity) (CHO-K1 not transfected, A23187 10 μM (Example 5)) | Change in intracellular Ca2+ concentration (fluorescence intensity) (host cell CHO-K1 not transfected, A23187 20 μM (Examples 8, 9)) | Change in intracellular Ca2+ concentration (fluorescence intensity) (CHO-K1 not transfected, peptide 1 nM (Example 5)) | Change in intracellular calcium concentration after addition of CCK-8S (host cell not transfected with the expressing vector (Examples 8, 9))
CNc1ccc2oc(C[C@H]3O[C@@]4(CC[C@H]3C)O[C@H]([C@H](C)C(=O)c3ccc[nH]3)[C@H](C)C[C@H]4C)nc2c1C(=O)O [A23187] | increased | increased | – | –
cholecystokinin octapeptide sulfated form [CCK-8S] | – | – | not increased | no change
